# Laboratory results published in the supplement of paper PMC10307832.
# Assays:
# Assay in all cases: relative viability (nuclei count vs DMSO), 5 days (fraction); higher = more cells survive
# ABC-1 = system: ABC-1
# In short: (§1)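 For relative viability, nuclei counts in treated wells were divided by those in vehicle wells. Lung cancer cell lines had been pin-tool dosed in 1536-well plates the day after seeding and cultured for 5 days, then fixed and stained in one step (final 0.05% Triton X-100, 1% formaldehyde, 1 ug/ml Hoechst) and imaged at 4×. Doses were one drug alone or a fixed anchor-drug dose plus five library-drug doses (not always all listed) in √10 steps, and values are duplicate-plate medians.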
# COR-L23 = system: COR-L23
# In short: as §1
# HARA = system: HARA
# In short: as §1
# SK-LU-1 = system: SK-LU-1
# In short: as §1
# NCI-H441 = system: NCI-H441
# In short: as §1
# PC-3 [JPC-3] = system: PC-3 [JPC-3]
# In short: as §1
# NCI-H3122 = system: NCI-H3122
# In short: as §1
# EMC-BAC-2 = system: EMC-BAC-2
# In short: as §1
# LK-2 = system: LK-2
# In short: as §1
# CAL-12T = system: CAL-12T
# In short: as §1
# NCI-H1650 = system: NCI-H1650
# In short: as §1
# NCI-H1437 = conditions: first compound 0.001 µM
# In short: as §1
smiles,measurement,setting,value
Cc1cn(-c2cc(NC(=O)c3ccc(C)c(Nc4nccc(-c5cccnc5)n4)c3)cc(C(F)(F)F)c2)cn1 [Nilotinib] + COc1cc2c(Oc3ccc(NC(=O)C4(C(=O)Nc5ccc(F)cc5)CC4)cc3F)ccnc2cc1OCCCN1CCOCC1 [Foretinib] (partner 0.25 µM),relative viability,ABC-1; first compound 0.001 µM,0.963
same,relative viability,ABC-1; first compound 0.003162 µM,1.32
same,relative viability,ABC-1; first compound 0.01 µM,1.17
same,relative viability,ABC-1; first compound 0.03162 µM,0.918
same,relative viability,ABC-1; first compound 0.1 µM,1.32
same,relative viability,COR-L23; first compound 0.001 µM,0.853
same,relative viability,COR-L23; first compound 0.003162 µM,1.28
same,relative viability,COR-L23; first compound 0.01 µM,1.13
same,relative viability,COR-L23; first compound 0.03162 µM,0.821
same,relative viability,COR-L23; first compound 0.1 µM,0.924
same,relative viability,HARA; first compound 0.001 µM,0.922
same,relative viability,HARA; first compound 0.003162 µM,0.646
same,relative viability,HARA; first compound 0.01 µM,0.817
same,relative viability,HARA; first compound 0.03162 µM,0.811
same,relative viability,HARA; first compound 0.1 µM,0.943
same,relative viability,SK-LU-1; first compound 0.001 µM,0.745
same,relative viability,SK-LU-1; first compound 0.003162 µM,0.925
same,relative viability,SK-LU-1; first compound 0.01 µM,0.956
same,relative viability,SK-LU-1; first compound 0.03162 µM,0.691
same,relative viability,SK-LU-1; first compound 0.1 µM,0.666
same,relative viability,NCI-H441; first compound 0.001 µM,0.878
same,relative viability,NCI-H441; first compound 0.003162 µM,1.26
same,relative viability,NCI-H441; first compound 0.01 µM,1.32
same,relative viability,NCI-H441; first compound 0.03162 µM,0.932
same,relative viability,NCI-H441; first compound 0.1 µM,0.805
same,relative viability,PC-3 [JPC-3]; first compound 0.001 µM,1.03
same,relative viability,PC-3 [JPC-3]; first compound 0.003162 µM,1.16
same,relative viability,PC-3 [JPC-3]; first compound 0.01 µM,1.25
same,relative viability,PC-3 [JPC-3]; first compound 0.03162 µM,0.967
same,relative viability,PC-3 [JPC-3]; first compound 0.1 µM,0.863
same,relative viability,NCI-H3122; first compound 0.001 µM,1.02
same,relative viability,NCI-H3122; first compound 0.003162 µM,1.09
same,relative viability,NCI-H3122; first compound 0.01 µM,1.08
same,relative viability,NCI-H3122; first compound 0.03162 µM,0.929
same,relative viability,NCI-H3122; first compound 0.1 µM,0.68
same,relative viability,EMC-BAC-2; first compound 0.001 µM,0.963
same,relative viability,EMC-BAC-2; first compound 0.003162 µM,1.14
same,relative viability,EMC-BAC-2; first compound 0.01 µM,1.13
same,relative viability,EMC-BAC-2; first compound 0.03162 µM,0.922
same,relative viability,EMC-BAC-2; first compound 0.1 µM,1.02
same,relative viability,LK-2; first compound 0.001 µM,1.02
same,relative viability,LK-2; first compound 0.003162 µM,1.53
same,relative viability,LK-2; first compound 0.01 µM,1.1
same,relative viability,LK-2; first compound 0.03162 µM,0.905
same,relative viability,LK-2; first compound 0.1 µM,0.711
same,relative viability,CAL-12T; first compound 0.001 µM,1.1
same,relative viability,CAL-12T; first compound 0.003162 µM,1.09
same,relative viability,CAL-12T; first compound 0.01 µM,1.17
same,relative viability,CAL-12T; first compound 0.1 µM,0.87
same,relative viability,NCI-H1650; first compound 0.001 µM,1.09
same,relative viability,NCI-H1650; first compound 0.003162 µM,1.2
same,relative viability,NCI-H1650; first compound 0.01 µM,1.3
same,relative viability,NCI-H1650; first compound 0.03162 µM,1.09
same,relative viability,NCI-H1650; first compound 0.1 µM,1.3
same,relative viability,NCI-H1437,1.2
